From EP0726261A1, “Herbidical 1,2,4 thiadiazoles” (American Cyanamid Company, priority 1995, dated 1996)

Assays:
Assay type in all cases: in vivo
Triticum aestivum [1] = experiment: Preemergence herbicidal activity (Example 67); parameters: herbicide rating, TRZAW: scale not given here; conditions: pre; 800 g/ha; rated about 1-3 weeks after treatment
Method: (§1) Herbicidal evaluation of compounds of the invention is conducted on the following plant species:
(§2) The soil is a prepared horticultural substrate containing 30% peat, 20% volcanic clay, 30% bark residues and 20% polyamide/styromull in a 1:3 mixture with loamy sand. Test solutions are prepared by dissolving the test compound in acetone containing 0.5% of an alkylphenol/ethylene oxide condensate under the trademark, TRITON® X-155, and diluting with water as needed. The test solutions are applied as a spray to the 3-6 week old seedling plants at dose rates corresponding to 800g/ha in a volume equivalent to 400 L/ha. A pneumatic spraying device employing a Teejet nozzle SS 8002E operating at 3 bar is used for a predetermined time. After spraying, the treated plants are placed on greenhouse benches and cared for in a manner commensurate with conventional greenhouse practice. After 10-21 days, the treated plants are evaluated and rated according to the rating system provided below.
(§3) The soil surface is then sprayed with test solutions as described in the postemergence evaluation hereinabove. After spraying, the treated cups are placed on greenhouse benches and cared for in the manner commensurate with conventional greenhouse practice. About 1-3 weeks after treatment the cups are evaluated and rated according to the rating system provided hereinabove.

Hordeum vulgare [2] = experiment: Preemergence herbicidal activity (Example 67); parameters: herbicide rating, HORVW: scale not given here; conditions: pre; 800 g/ha; rated about 1-3 weeks after treatment
Method: as §1, §2, §3

Galium aparine [3] = experiment: Postemergence herbicidal activity (Example 67); conditions: pos; 800 g/ha; rated after 10-21 days
Method: as §1, §2

Zea mays [4] = experiment: Postemergence herbicidal activity (Example 67); conditions: pos; 800 g/ha; rated after 10-21 days
Method: as §1, §2

Ipomoea hederacea [5] = experiment: Postemergence herbicidal activity (Example 67); conditions: pos; 800 g/ha; rated after 10-21 days
Method: as §1, §2

Amaranthus retroflexus [6] = experiment: Postemergence herbicidal activity (Example 67); conditions: pos; 800 g/ha; rated after 10-21 days
Method: as §1, §2

Setaria viridis [7] = experiment: Postemergence herbicidal activity (Example 67); conditions: pos; 800 g/ha; rated after 10-21 days
Method: as §1, §2

Alopecurus myosuroides [8] = experiment: Postemergence herbicidal activity (Example 67); conditions: pos; 800 g/ha; rated after 10-21 days
Method: as §1, §2

Chenopodium album [9] = experiment: Postemergence herbicidal activity (Example 67); conditions: pos; 800 g/ha; rated after 10-21 days
Method: as §1, §2

Abutilon theophrasti [10] = experiment: Postemergence herbicidal activity (Example 67); conditions: pos; 800 g/ha; rated after 10-21 days
Method: as §1, §2

Veronica persica [11] = experiment: Postemergence herbicidal activity (Example 67); conditions: pos; 800 g/ha; rated after 10-21 days
Method: as §1, §2

Triticum aestivum [12] = experiment: Postemergence herbicidal activity (Example 67); conditions: pos; 800 g/ha; rated after 10-21 days
Method: as §1, §2

Hordeum vulgare [13] = experiment: Postemergence herbicidal activity (Example 67); conditions: pos; 800 g/ha; rated after 10-21 days
Method: as §1, §2

Helianthus annuus [14] = experiment: Postemergence herbicidal activity (Example 67); conditions: pos; 800 g/ha; rated after 10-21 days
Method: as §1, §2

Alopecurus myosuroides [15] = experiment: Preemergence herbicidal activity (Example 67); parameters: herbicide rating, ALOMY: scale not given here; conditions: pre; 800 g/ha; rated about 1-3 weeks after treatment
Method: as §1, §2, §3

Galium aparine [16] = experiment: Preemergence herbicidal activity (Example 67); conditions: pre; 800 g/ha; rated about 1-3 weeks after treatment
Method: as §1, §2, §3

Zea mays [17] = experiment: Preemergence herbicidal activity (Example 67); conditions: pre; 800 g/ha; rated about 1-3 weeks after treatment
Method: as §1, §2, §3

Ipomoea hederacea [18] = experiment: Preemergence herbicidal activity (Example 67); conditions: pre; 800 g/ha; rated about 1-3 weeks after treatment
Method: as §1, §2, §3

Amaranthus retroflexus [19] = experiment: Preemergence herbicidal activity (Example 67); conditions: pre; 800 g/ha; rated about 1-3 weeks after treatment
Method: as §1, §2, §3

Chenopodium album [20] = experiment: Preemergence herbicidal activity (Example 67); conditions: pre; 800 g/ha; rated about 1-3 weeks after treatment
Method: as §1, §2, §3

Abutilon theophrasti [21] = experiment: Preemergence herbicidal activity (Example 67); conditions: pre; 800 g/ha; rated about 1-3 weeks after treatment
Method: as §1, §2, §3

Veronica persica [22] = experiment: Preemergence herbicidal activity (Example 67); conditions: pre; 800 g/ha; rated about 1-3 weeks after treatment
Method: as §1, §2, §3

Helianthus annuus [23] = experiment: Preemergence herbicidal activity (Example 67); conditions: pre; 800 g/ha; rated about 1-3 weeks after treatment
Method: as §1, §2, §3

Setaria viridis [24] = experiment: Preemergence herbicidal activity (Example 67); parameters: herbicide rating, SETVI: scale not given here; conditions: pre; 800 g/ha; rated about 1-3 weeks after treatment
Method: as §1, §2, §3

| SMILES | herbicide rating, TRZAW (Triticum aestivum [1]) | herbicide rating, HORVW (Hordeum vulgare [2]) | herbicide rating, GALAP (Galium aparine [3]) | herbicide rating, ZEAMX (Zea mays [4]) | herbicide rating, IPOHE (Ipomoea hederacea [5]) | herbicide rating, AMARE (Amaranthus retroflexus [6]) | herbicide rating, SETVI (Setaria viridis [7]) | herbicide rating, ALOMY (Alopecurus myosuroides [8]) | herbicide rating, CHEAL (Chenopodium album [9]) | herbicide rating, ABUTH (Abutilon theophrasti [10]) | herbicide rating, VERPE (Veronica persica [11]) | herbicide rating, TRZAW (Triticum aestivum [12]) | herbicide rating, HORVW (Hordeum vulgare [13]) | herbicide rating, HELAN (Helianthus annuus [14]) | herbicide rating, ALOMY (Alopecurus myosuroides [15]) | herbicide rating, GALAP (Galium aparine [16]) | herbicide rating, ZEAMX (Zea mays [17]) | herbicide rating, IPOHE (Ipomoea hederacea [18]) | herbicide rating, AMARE (Amaranthus retroflexus [19]) | herbicide rating, CHEAL (Chenopodium album [20]) | also measured |
| --- | --- | --- | --- | --- | --- | --- | --- | --- | --- | --- | --- | --- | --- | --- | --- | --- | --- | --- | --- | --- | --- |
| COc1ccc(-c2nsc(C(=O)NC(C)c3cccs3)n2)cc1 (racemic) [Example 35] | 0 | 0 | 4 (30-44%) | 3 (16-29%) | 4 (30-44%) | 3 (16-29%) | 8 (91-99%) | 3 (16-29%) | 5 (45-64%) | 4 (30-44%) | 2 (6-15%) | 3 (16-29%) | 3 (16-29%) | 5 (45-64%) | 0 | 4 (30-44%) | 0 | 0 | 0 | 5 (45-64%) | herbicide rating, ABUTH (Abutilon theophrasti [21]): 0; herbicide rating, VERPE (Veronica persica [22]): 4 (30-44%); herbicide rating, HELAN (Helianthus annuus [23]): 3 (16-29%); herbicide rating, SETVI (Setaria viridis [24]): 0 |
| COc1ccc(-c2nsc(C(=O)NC(C)c3ccc(C)s3)n2)cc1 (racemic) [Example 37] | 0 | 0 | 0 | 0 | 1 (1-5%) | 0 | 4 (30-44%) | 2 (6-15%) | 3 (16-29%) | 0 | 0 | 3 (16-29%) | 2 (6-15%) | 0 | 0 | 0 | 0 | 0 | 0 | 6 (65-79%) | herbicide rating, ABUTH (Abutilon theophrasti [21]): 0; herbicide rating, VERPE (Veronica persica [22]): 0; herbicide rating, HELAN (Helianthus annuus [23]): 0; herbicide rating, SETVI (Setaria viridis [24]): 0 |
| CC(NC(=O)c1nc(-c2ccccc2F)ns1)c1cccs1 (racemic) [Example 38] | 0 | 0 | 5 (45-64%) | 3 (16-29%) | 5 (45-64%) | 3 (16-29%) | 8 (91-99%) | 4 (30-44%) | 6 (65-79%) | 8 (91-99%) | 1 (1-5%) | 3 (16-29%) | 3 (16-29%) | 7 (80-90%) | 0 | 0 | 0 | 0 | 4 (30-44%) | 5 (45-64%) | herbicide rating, ABUTH (Abutilon theophrasti [21]): 0; herbicide rating, VERPE (Veronica persica [22]): 2 (6-15%); herbicide rating, HELAN (Helianthus annuus [23]): 0; herbicide rating, SETVI (Setaria viridis [24]): 0 |
| CC(NC(=O)c1nsc(-c2ccc(F)cc2)n1)c1cccs1 (racemic) [Example 39] | 0 | 0 | 5 (45-64%) | 6 (65-79%) | 4 (30-44%) | 3 (16-29%) | 8 (91-99%) | 3 (16-29%) | 4 (30-44%) | 4 (30-44%) | 2 (6-15%) | 3 (16-29%) | 3 (16-29%) | 6 (65-79%) | 0 | 0 | 0 | 0 | 4 (30-44%) | 0 | herbicide rating, ABUTH (Abutilon theophrasti [21]): 0; herbicide rating, VERPE (Veronica persica [22]): 0; herbicide rating, HELAN (Helianthus annuus [23]): 0; herbicide rating, SETVI (Setaria viridis [24]): 0 |
